Source: US20080090805A1, “CB-1 MODULATING COMPOUNDS AND THEIR USE” (ACADIA PHARMACEUTICALS INC., priority 2005, published 2008)
Read-outs that look alike come from different tables or passages of the source.

Legend:
hERG = hERG (Homo sapiens, UniProt Q12809); experiment: HERG safety study (whole cell recordings, CHO cells); conditions: CHO cells stably expressing hERG channels, pH 7.4
native CB1 receptors = native CB1 receptors (Rattus norvegicus, UniProt P20272); experiment: CB1 receptor rat binding assay ([3H]SR141716A, rat brain membranes)
Sequence of native CB1 receptors (P20272 whole entry): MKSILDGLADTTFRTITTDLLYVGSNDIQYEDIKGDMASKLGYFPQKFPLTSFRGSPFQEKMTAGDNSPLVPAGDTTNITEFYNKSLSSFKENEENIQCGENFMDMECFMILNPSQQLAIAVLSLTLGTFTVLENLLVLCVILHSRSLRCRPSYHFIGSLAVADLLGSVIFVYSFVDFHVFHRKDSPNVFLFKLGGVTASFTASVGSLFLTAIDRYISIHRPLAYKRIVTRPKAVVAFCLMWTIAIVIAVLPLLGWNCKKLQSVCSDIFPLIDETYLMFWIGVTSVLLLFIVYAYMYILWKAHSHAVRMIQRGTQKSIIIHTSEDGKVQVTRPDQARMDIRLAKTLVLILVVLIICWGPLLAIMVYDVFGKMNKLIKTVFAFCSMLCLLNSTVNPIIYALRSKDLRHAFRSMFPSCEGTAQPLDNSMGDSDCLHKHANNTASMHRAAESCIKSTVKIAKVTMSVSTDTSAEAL

human CB1 receptor = human CB1 receptor (Homo sapiens, UniProt P21554); experiment: CB1 receptor human binding assay ([3H]SR141716A, transfected HEK-293 T membranes); conditions: human CB1, HEK-293 T membranes; for Ki: read-out: Binding Human pKi (converted)
Sequence of human CB1 receptor (P21554 whole entry): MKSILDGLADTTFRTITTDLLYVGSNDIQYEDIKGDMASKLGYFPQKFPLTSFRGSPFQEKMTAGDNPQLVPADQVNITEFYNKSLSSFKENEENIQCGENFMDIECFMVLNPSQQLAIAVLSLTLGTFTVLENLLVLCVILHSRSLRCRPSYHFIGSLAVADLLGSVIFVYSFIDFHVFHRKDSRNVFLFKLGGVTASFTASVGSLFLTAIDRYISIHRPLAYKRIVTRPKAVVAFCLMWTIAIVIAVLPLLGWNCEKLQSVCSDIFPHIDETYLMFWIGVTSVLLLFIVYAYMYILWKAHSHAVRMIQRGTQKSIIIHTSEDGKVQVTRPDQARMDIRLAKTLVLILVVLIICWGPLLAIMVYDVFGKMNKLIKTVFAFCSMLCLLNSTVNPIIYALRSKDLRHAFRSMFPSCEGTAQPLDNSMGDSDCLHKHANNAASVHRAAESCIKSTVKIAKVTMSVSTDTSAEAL

[1] = rat brain membranes, [3H]SR141716A
[2] = rat brain membranes, [3H]SR141716A, read-out: Binding rat pKi (converted)

Sequence of hERG (Q12809 whole entry): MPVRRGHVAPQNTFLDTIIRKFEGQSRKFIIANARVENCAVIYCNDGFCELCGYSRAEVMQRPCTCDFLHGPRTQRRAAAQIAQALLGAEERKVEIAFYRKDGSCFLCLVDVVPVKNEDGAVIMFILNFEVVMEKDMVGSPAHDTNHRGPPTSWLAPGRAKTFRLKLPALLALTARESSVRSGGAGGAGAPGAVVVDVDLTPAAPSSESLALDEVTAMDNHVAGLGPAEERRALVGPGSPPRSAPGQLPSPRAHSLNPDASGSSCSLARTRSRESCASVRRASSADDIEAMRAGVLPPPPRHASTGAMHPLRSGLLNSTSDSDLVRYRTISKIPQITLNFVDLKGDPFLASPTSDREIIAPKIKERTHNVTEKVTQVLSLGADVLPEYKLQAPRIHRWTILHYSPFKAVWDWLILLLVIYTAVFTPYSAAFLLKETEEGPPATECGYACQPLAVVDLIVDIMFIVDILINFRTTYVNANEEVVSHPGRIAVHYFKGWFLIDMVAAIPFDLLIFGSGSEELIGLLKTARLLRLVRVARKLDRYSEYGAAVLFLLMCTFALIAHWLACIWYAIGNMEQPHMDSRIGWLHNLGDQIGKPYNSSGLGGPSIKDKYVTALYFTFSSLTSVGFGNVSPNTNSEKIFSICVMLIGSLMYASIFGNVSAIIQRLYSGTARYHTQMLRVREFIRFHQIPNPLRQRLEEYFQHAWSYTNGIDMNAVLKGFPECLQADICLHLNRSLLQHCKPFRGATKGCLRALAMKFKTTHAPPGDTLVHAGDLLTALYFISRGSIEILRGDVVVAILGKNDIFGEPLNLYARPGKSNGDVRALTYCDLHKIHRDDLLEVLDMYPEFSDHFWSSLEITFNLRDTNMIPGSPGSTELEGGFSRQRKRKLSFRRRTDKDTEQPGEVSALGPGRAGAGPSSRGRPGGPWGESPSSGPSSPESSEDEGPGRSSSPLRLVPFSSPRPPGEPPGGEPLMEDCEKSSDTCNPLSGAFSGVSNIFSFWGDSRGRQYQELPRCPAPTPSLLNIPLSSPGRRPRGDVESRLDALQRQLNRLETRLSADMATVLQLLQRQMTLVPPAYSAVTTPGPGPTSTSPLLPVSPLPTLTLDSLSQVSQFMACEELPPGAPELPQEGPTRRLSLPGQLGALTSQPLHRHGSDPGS

CCCCNC(=O)c1ccc2c(c1)N=C(c1ccc(Cl)cn1)c1ccccc1S2 [drawing 1839]
inhibition at 1 µM (hERG): 67%

CC(C)CNC(=O)c1ccc2c(c1)N=C(c1ccc(Cl)s1)c1ccc(Cl)cc1S2 [drawing 1200]
Binding rat Inh % (native CB1 receptors; [1]): 100% | Ki (native CB1 receptors; [2]): 5.01 nM | Binding Human Inh % (human CB1 receptor): 92% | Ki (human CB1 receptor): 0.631 nM

O=C(NC1CCCCC1)c1ccc2c(c1)N=C(c1ccc(F)cc1)c1ccccc1S2 [drawing 1202]
Binding rat Inh % (native CB1 receptors; [1]): 84% | Ki (native CB1 receptors; [2]): 3.16 nM | Binding Human Inh % (human CB1 receptor): 87% | Ki (human CB1 receptor): 1.26 nM

O=C(NCCCC(F)(F)F)c1ccc2c(c1)N=C(c1ccc(Cl)cc1F)c1ccccc1S2 [drawing 1175]
Binding rat Inh % (native CB1 receptors; [1]): 87% | Ki (native CB1 receptors; [2]): 0.501 nM | Binding Human Inh % (human CB1 receptor): 92% | Ki (human CB1 receptor): 0.0794 nM

O=C(NN1CCCCCC1)c1ccc2c(c1)N=C(c1ccc(Cl)s1)c1ccccc1S2 [drawing 1816]
inhibition at 1 µM (hERG): 30%

CCCCNC(=O)c1ccc2c(c1)N=C(c1ccc(Cl)cc1)c1ccccc1[S+]2[O-] (stereo not drawn) [drawing 1840]
inhibition at 1 µM (hERG): 52%

O=C(NN1CCCCCC1)c1ccc2c(c1)N=C(c1cccc(F)c1)c1ccccc1S2 [drawing 1215]
Binding rat Inh % (native CB1 receptors; [1]): 97% | Ki (native CB1 receptors; [2]): 6.31 nM | Binding Human Inh % (human CB1 receptor): 103% | Ki (human CB1 receptor): 2 nM

CC(C)CNC(=O)c1ccc2c(c1)N=C(c1ccc(Cl)cc1F)c1ccccc1S2 [drawing 1199]
Binding rat Inh % (native CB1 receptors; [1]): 94% | Ki (native CB1 receptors; [2]): 5.01 nM | Binding Human Inh % (human CB1 receptor): 77% | Ki (human CB1 receptor): 0.631 nM

O=C(NCCCC(F)(F)F)c1ccc2c(c1)N=C(c1ccc(Cl)cc1F)c1ccccc1S2 [drawing 1809]
inhibition at 1 µM (hERG): 24%

O=C(NCc1cccs1)c1ccc2c(c1)N=C(c1ccc(F)cc1)c1ccccc1S2 [drawing 1178]
Binding rat Inh % (native CB1 receptors; [1]): 97% | Ki (native CB1 receptors; [2]): 1.58 nM | Binding Human Inh % (human CB1 receptor): 76% | Ki (human CB1 receptor): 0.2 nM

CC(C)CNC(=O)c1ccc2c(c1)N=C(c1ccc(Cl)cc1)c1ccc(F)cc1S2 [drawing 1177]
Binding rat Inh % (native CB1 receptors; [1]): 89% | Ki (native CB1 receptors; [2]): 3.98 nM | Binding Human Inh % (human CB1 receptor): 93% | Ki (human CB1 receptor): 0.158 nM

O=C(NCCCC(F)(F)F)c1ccc2c(c1)N=C(c1ccsc1)c1ccccc1S2 [drawing 1837]
inhibition at 1 µM (hERG): 28%

CC(C)CNC(=O)c1ccc2c(c1)N=C(c1ccc(Cl)c(Cl)c1)c1ccccc1S2 [drawing 1833]
inhibition at 1 µM (hERG): 16%

CC(C)CNC(=O)c1ccc2c(c1)N=C(c1ccc(Cl)cc1F)c1ccccc1S2 [drawing 1835]
inhibition at 1 µM (hERG): 41%

CCCNC(=O)c1ccc2c(c1)N=C(c1ccc(Cl)cc1)c1ccccc1S2 [drawing 1826]
inhibition at 1 µM (hERG): 55%

COc1cccc(C2=Nc3cc(C(=O)NCCCC(F)(F)F)ccc3Sc3ccccc32)n1 [drawing 1823]
inhibition at 1 µM (hERG): 35%

Cc1ccc(CNC(=O)c2ccc3c(c2)N=C(c2ccc(Cl)s2)c2ccccc2S3)o1 [drawing 1836]
inhibition at 1 µM (hERG): 13%

O=C(NN1CCCCC1)c1ccc2c(c1)N=C(C1CCCCC1)c1ccccc1S2 [drawing 1216]
Ki (native CB1 receptors): 5.01 nM | Binding rat Inh % (native CB1 receptors; [1]): 94% | Binding Human Inh % (human CB1 receptor): 65% | Ki (human CB1 receptor): 2 nM

CC(C)CNC(=O)c1ccc2c(c1)N=C(c1ccc(Cl)cc1)c1ccc(F)cc1S2 [drawing 1811]
inhibition at 1 µM (hERG): 58%

O=C(NN1CCCCCC1)c1ccc2c(c1)N=C(c1cccc(Cl)c1)c1ccccc1S2 [drawing 1209]
Binding rat Inh % (native CB1 receptors; [1]): 87% | Ki (native CB1 receptors; [2]): 2 nM | Binding Human Inh % (human CB1 receptor): 94% | Ki (human CB1 receptor): 1.58 nM

CC(C)CNC(=O)c1ccc2c(c1)N=C(c1ccc(Cl)c(Cl)c1)c1ccccc1S2 [drawing 1192]
Binding rat Inh % (native CB1 receptors; [1]): 96% | Ki (native CB1 receptors; [2]): 1.58 nM | Binding Human Inh % (human CB1 receptor): 100% | Ki (human CB1 receptor): 0.398 nM

CC(C)CNC(=O)c1ccc2c(c1)N=C(c1ccc(Cl)s1)c1ccccc1S2 [drawing 1813]
inhibition at 1 µM (hERG): 26%

O=C(NCCCC(F)(F)F)c1ccc2c(c1)N=C(c1cccc(F)c1)c1ccccc1S2 [drawing 1817]
inhibition at 1 µM (hERG): 45%

CC(C)CNC(=O)c1ccc2c(c1)N=C(c1cccc(Cl)c1)c1ccccc1S2 [drawing 1819]
inhibition at 1 µM (hERG): 93%

COc1cccc(C2=Nc3cc(C(=O)NCCCC(F)(F)F)ccc3Sc3ccccc32)n1 [drawing 1186]
Binding rat Inh % (native CB1 receptors; [1]): 87% | Ki (native CB1 receptors; [2]): 10 nM | Binding Human Inh % (human CB1 receptor): 84% | Ki (human CB1 receptor): 0.316 nM

COc1cccc(C2=Nc3cc(C(=O)NC4CCC(F)(F)CC4)ccc3Sc3ccccc32)n1 [drawing 1193]
Binding rat Inh % (native CB1 receptors; [1]): 82% | Ki (native CB1 receptors; [2]): 0.794 nM | Binding Human Inh % (human CB1 receptor): 88% | Ki (human CB1 receptor): 0.501 nM

O=C(NCCCC(F)(F)F)c1ccc2c(c1)N=C(c1ccc(Cl)s1)c1ccccc1S2 [drawing 1810]
inhibition at 1 µM (hERG): 14%

CC(C)CCNC(=O)c1ccc2c(c1)N=C(c1cccc(Cl)c1)c1ccccc1S2 [drawing 1185]
Binding rat Inh % (native CB1 receptors; [1]): 89% | Ki (native CB1 receptors; [2]): 1 nM | Binding Human Inh % (human CB1 receptor): 86% | Ki (human CB1 receptor): 0.251 nM

CCCCNC(=O)c1ccc2c(c1)N=C(c1ccc(Cl)cc1)c1ccc(F)cc1S2 [drawing 1821]
inhibition at 1 µM (hERG): 34%

COCCNC(=O)c1ccc2c(c1)N=C(c1ccc(Cl)s1)c1ccccc1S2 [drawing 1218]
Binding rat Inh % (native CB1 receptors; [1]): 80% | Ki (native CB1 receptors; [2]): 50.1 nM | Binding Human Inh % (human CB1 receptor): 94% | Ki (human CB1 receptor): 20 nM

O=C(NN1CCCCCC1)c1ccc2c(c1)N=C(c1cccc(Cl)c1)c1ccccc1S2 [drawing 1825]
inhibition at 1 µM (hERG): 97%

O=C(NN1CCCCCC1)c1ccc2c(c1)N=C(c1ccc(Cl)s1)c1ccccc1S2 [drawing 1208]
Binding rat Inh % (native CB1 receptors; [1]): 93% | Ki (native CB1 receptors; [2]): 5.01 nM | Binding Human Inh % (human CB1 receptor): 96% | Ki (human CB1 receptor): 1.58 nM

O=C(NN1CCCCC1)c1ccc2c(c1)N=C(C1CCCCC1)c1ccccc1S2 [drawing 1828]
inhibition at 1 µM (hERG): 29%

O=C(NCCCC(F)(F)F)c1ccc2c(c1)N=C(c1ccc(Cl)s1)c1ccccc1S2 [drawing 1176]
Binding rat Inh % (native CB1 receptors; [1]): 91% | Ki (native CB1 receptors; [2]): 0.501 nM | Binding Human Inh % (human CB1 receptor): 87% | Ki (human CB1 receptor): 0.158 nM

CCCCNC(=O)c1ccc2c(c1)N=C(c1ccc(Cl)s1)c1ccccc1S2 [drawing 1191]
Binding rat Inh % (native CB1 receptors; [1]): 101% | Ki (native CB1 receptors; [2]): 2.51 nM | Binding Human Inh % (human CB1 receptor): 90% | Ki (human CB1 receptor): 0.316 nM

CC(C)CCNC(=O)c1ccc2c(c1)N=C(c1ccccn1)c1ccccc1S2 [drawing 1842]
inhibition at 1 µM (hERG): 39%

O=C(NCCCC(F)(F)F)c1ccc2c(c1)N=C(c1ccccn1)c1ccccc1S2 [drawing 1832]
inhibition at 1 µM (hERG): 28%

O=C(NN1CCCCC1)c1ccc2c(c1)N=C(c1ccc(F)cc1)c1ccccc1S2 [drawing 1207]
Binding rat Inh % (native CB1 receptors; [1]): 103% | Ki (native CB1 receptors; [2]): 10 nM | Binding Human Inh % (human CB1 receptor): 87% | Ki (human CB1 receptor): 1.26 nM

CCCNC(=O)c1ccc2c(c1)N=C(c1ccc(Cl)cc1)c1ccccc1S2 [drawing 1210]
Binding rat Inh % (native CB1 receptors; [1]): 95% | Ki (native CB1 receptors; [2]): 6.31 nM | Binding Human Inh % (human CB1 receptor): 74% | Ki (human CB1 receptor): 2 nM

CC(C)CNC(=O)c1ccc2c(c1)N=C(c1ccccn1)c1ccccc1S2 [drawing 1217]
Binding rat Inh % (native CB1 receptors; [1]): 79% | Ki (native CB1 receptors; [2]): 158 nM | Binding Human Inh % (human CB1 receptor): 89% | Ki (human CB1 receptor): 6.31 nM

CCCCNC(=O)c1ccc2c(c1)N=C(c1ccc(Cl)cc1)c1ccc(F)cc1S2 [drawing 1184]
Binding rat Inh % (native CB1 receptors; [1]): 98% | Ki (native CB1 receptors; [2]): 2.51 nM | Binding Human Inh % (human CB1 receptor): 94% | Ki (human CB1 receptor): 0.251 nM

O=C(NC1CCCCC1)c1ccc2c(c1)N=C(c1cccc(Cl)c1)c1ccccc1S2 [drawing 1194]
Binding rat Inh % (native CB1 receptors; [1]): 80% | Ki (native CB1 receptors; [2]): 1.26 nM | Binding Human Inh % (human CB1 receptor): 107% | Ki (human CB1 receptor): 0.631 nM
